Measured values from ChEMBL document CHEMBL4823289, “Conformational-Analysis-Guided Discovery of 2,3-Disubstituted Pyridine IDO1 Inhibitors” (ACS Med Chem Lett, 2021).

Legend:
[1] = target: T1, Indoleamine 2,3-dioxygenase 1 (Homo sapiens, UniProt P14902); assay: Inhibition of IDO1 in IFNgamma-stimulated human HeLa cells preincubated for 2 hrs followed by recombinant human IFNgamma stimulation and measured after 18 hrs by fluorescence based microplate reader assay
[2] = Metabolic stability in rat liver microsomes assessed as parent compound remaining at 0.5 uM after 10 mins incubation by LC-MS/MS analysis relative to control; format: ADME, Microsome; conditions: read-out: Activity
[3] = target: Indoleamine 2,3-dioxygenase 1 (Mus musculus, UniProt P28776); assay: Inhibition of IDO1 in IFNgamma-stimulated mouse M109 cells preincubated for 2 hrs followed by recombinant murine IFNgamma stimulation and measured after 18 hrs by fluorescence based microplate reader assay; format: cell-based
[4] = target: T1, Indoleamine 2,3-dioxygenase 1; assay: Inhibition of IDO1 in IFNgamma/LPS-stimulated human whole blood preincubated for 4 hrs followed by IFNgamma/LPS stimulation and incubated for 18 hrs by Rapid-fire mass spectrometry analysis; format: tissue-based
[5] = Metabolic stability in human liver microsomes assessed as parent compound remaining at 0.5 uM after 10 mins incubation by LC-MS/MS analysis relative to control; format: ADME, Microsome; conditions: read-out: Activity
[6] = Metabolic stability in mouse liver microsomes assessed as parent compound remaining at 0.5 uM after 10 mins incubation by LC-MS/MS analysis relative to control; format: ADME, Microsome; conditions: read-out: Activity
[7] = AUC (0 to 24 hrs) in human SK-OV-3 cells xenografted in nu/nu mouse xenograft model measured in tumor at 60 mg/kg, po QD; format: ADME, organism-based; set-up: time < 24 hr, route oral, dose 60 mg/kg
[8] = target: Indoleamine 2,3-dioxygenase 1 (Mus musculus) (UniProt P28776); assay: In vivo inhibition of IDO1 in mouse xenografted with human SK-OV-3 cells assessed as reduction in tumor kynurenine AUEC at 60 mg/kg, po QD for 5 days measured up to 24 hrs after dosing relative to control; format: functional, organism-based; set-up: scale not given: the % may be the effect or the level left; conditions: time 5.0 day
[9] = Protein binding in human assessed as free fraction relative to control; format: ADME
[10] = Protein binding in mouse assessed as free fraction relative to control; format: ADME

Sequence of Indoleamine 2,3-dioxygenase 1 (Mus musculus, UniProt P28776) (P28776 whole entry): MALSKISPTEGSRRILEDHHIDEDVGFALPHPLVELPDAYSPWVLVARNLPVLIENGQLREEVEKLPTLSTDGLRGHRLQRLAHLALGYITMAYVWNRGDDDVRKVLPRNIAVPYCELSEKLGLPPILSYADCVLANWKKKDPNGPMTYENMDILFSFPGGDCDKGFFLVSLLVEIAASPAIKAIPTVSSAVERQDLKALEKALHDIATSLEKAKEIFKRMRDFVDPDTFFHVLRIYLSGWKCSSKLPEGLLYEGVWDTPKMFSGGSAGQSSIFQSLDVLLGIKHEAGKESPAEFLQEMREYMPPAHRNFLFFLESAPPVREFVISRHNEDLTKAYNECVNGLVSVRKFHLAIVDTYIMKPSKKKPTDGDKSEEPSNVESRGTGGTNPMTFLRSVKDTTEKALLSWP
T1 sequence (P14902 whole entry): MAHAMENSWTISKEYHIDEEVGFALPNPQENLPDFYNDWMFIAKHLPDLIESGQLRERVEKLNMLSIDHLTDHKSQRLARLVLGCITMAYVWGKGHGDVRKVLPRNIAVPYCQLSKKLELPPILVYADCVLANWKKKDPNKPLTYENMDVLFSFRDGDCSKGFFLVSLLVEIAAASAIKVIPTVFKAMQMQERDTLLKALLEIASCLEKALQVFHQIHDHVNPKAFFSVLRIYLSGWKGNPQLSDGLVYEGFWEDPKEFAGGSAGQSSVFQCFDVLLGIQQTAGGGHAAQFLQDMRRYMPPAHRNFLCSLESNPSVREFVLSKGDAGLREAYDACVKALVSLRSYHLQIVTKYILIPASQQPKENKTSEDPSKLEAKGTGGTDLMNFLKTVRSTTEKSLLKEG
Sequence of Indoleamine 2,3-dioxygenase 1 (Mus musculus) (P28776 whole entry, looked up): as the sequence (P28776 whole entry) above

Row | SMILES | IC50 [1] [nM] | remaining at 10 min, 0.5 µM [2] [%] | IC50 [3] [nM] | IC50 [4] [nM] | remaining at 10 min, 0.5 µM [5] [%] | remaining at 10 min, 0.5 µM [6] [%] | AUC at 24 h [7] [µM·h] | Activity [8] [%] | Activity [9] [%] | Activity [10] [%]
1 | CC[C@@H](NC(=O)c1ccc(Cl)cc1)[C@H]1CC[C@@H](c2ccnc(OC)c2C(F)F)CC1 | 2 | 57 | 6 | 4.4 | 85 | 30 |  |  |  | 
2 | COC[C@@H](NC(=O)c1ccc(Cl)cc1)[C@H]1CC[C@@H](c2ccnc(OC)c2C(F)F)CC1 | 2 | 35 | 11 | 4.1 | 68 | 15 |  |  |  | 
3 | CC[C@@H](NC(=O)c1ccc(Cl)cc1)[C@H]1CC[C@H](c2ccc(OC(F)F)cc2)CC1 | 14 |  | 75 |  | 94 | 90 |  |  |  | 
4 | C[C@@H](C(=O)Nc1ccc(Cl)cc1)[C@H]1CC[C@@H](c2ccnc3ccc(F)cc32)CC1 |  |  |  |  |  |  | 18 | 65 |  | 
5 | CC[C@@H](NC(=O)c1ccc(Cl)cc1)[C@H]1CC[C@@H](c2cccnc2OC)CC1 | 475 |  | > 1000 |  | 3 | 1 |  |  |  | 
6 | Cc1cc([C@H]2CC[C@@H]([C@@H](C)NC(=O)c3ccc(Cl)cc3)CC2)ccn1 | 12 |  | 16 |  | 1 | 1 |  |  |  | 
7 | CC[C@@H](NC(=O)c1ccc(Cl)cc1)[C@H]1CC[C@H](c2cccc(C)n2)CC1 | 48 |  | 121 |  | 56 | 8 |  |  |  | 
8 | CC[C@@H](NC(=O)c1ccc(Cl)cc1)[C@H]1CC[C@H](c2cccc(C(F)(F)F)n2)CC1 | 40 |  | 40 |  | 89 | 56 |  |  |  | 
9 | CC[C@@H](NC(=O)c1ccc(Cl)cc1)[C@H]1CC[C@H](c2nccc(OC)n2)CC1 | 80 |  | 193 |  | 20 | 42 |  |  |  | 
10 | CC[C@@H](NC(=O)c1ccc(Cl)cc1)[C@H]1CC[C@@H](c2ccnc(OC)c2C)CC1 | 2 | 34 | 7 | 2.8 | 71 | 15 |  |  |  | 
11 | Cc1c(F)nccc1[C@H]1CC[C@@H]([C@@H](C)NC(=O)c2ccc(Cl)cc2)CC1 | 5 | 1 | 3 | 47 | 0 | 1 |  |  |  | 
12 | CC[C@@H](NC(=O)c1ccc(Cl)cc1)[C@H]1CC[C@H](c2cncc(OC)c2)CC1 | 19 |  | 31 |  | 80 | 28 |  |  |  | 
13 | Cc1cnccc1[C@H]1CC[C@@H]([C@@H](C)NC(=O)c2ccc(Cl)cc2)CC1 | 7 |  | 3 |  | 16 | 15 |  |  |  | 
14 | CC[C@@H](NC(=O)c1ccc(Cl)cc1)[C@H]1CC[C@@H](c2cccc3c2OC(F)(F)O3)CC1 | 43 |  | 196 |  | 0 | 0 |  |  |  | 
15 | C[C@@H](NC(=O)c1ccc(Cl)cc1)[C@H]1CC[C@@H](c2ccnc3ccc(F)cc32)CC1 |  |  |  |  |  |  |  |  | < 0.3 | < 0.2
16 | CC[C@@H](NC(=O)c1ccc(Cl)cc1)[C@H]1CC[C@@H](c2ccnc(OC)c2F)CC1 | 3 | 21 | 22 | 11 | 68 | 15 |  |  |  | 
17 | Cc1nccc([C@H]2CC[C@@H]([C@@H](C)NC(=O)c3ccc(Cl)cc3)CC2)c1C | 4 |  | 6 |  | 30 | 3 |  |  |  | 
18 | CC[C@@H](NC(=O)c1ccc(Cl)cc1)[C@H]1CC[C@H](c2cccc(=O)n2C)CC1 | 26 |  | 97 |  | 88 | 65 |  |  |  | 
